Among the data in patent publication US20250101041A1, “POSITIVE ALLOSTERIC MODULATORS OF THE MUSCARINIC ACETYLCHOLINE RECEPTOR M4” (Vanderbilt University, priority 2022, published 2025) are Emax and EC50 values, retold here.

The assay has as its target T1, human mAChR M4 (Homo sapiens, UniProt P08173).
T1 construct: expressed in transfected cells; host or cells: CHO-K1 (American Type Culture Collection), stably expressing hM4 and Gqi5
T1 sequence (P08173 1-479): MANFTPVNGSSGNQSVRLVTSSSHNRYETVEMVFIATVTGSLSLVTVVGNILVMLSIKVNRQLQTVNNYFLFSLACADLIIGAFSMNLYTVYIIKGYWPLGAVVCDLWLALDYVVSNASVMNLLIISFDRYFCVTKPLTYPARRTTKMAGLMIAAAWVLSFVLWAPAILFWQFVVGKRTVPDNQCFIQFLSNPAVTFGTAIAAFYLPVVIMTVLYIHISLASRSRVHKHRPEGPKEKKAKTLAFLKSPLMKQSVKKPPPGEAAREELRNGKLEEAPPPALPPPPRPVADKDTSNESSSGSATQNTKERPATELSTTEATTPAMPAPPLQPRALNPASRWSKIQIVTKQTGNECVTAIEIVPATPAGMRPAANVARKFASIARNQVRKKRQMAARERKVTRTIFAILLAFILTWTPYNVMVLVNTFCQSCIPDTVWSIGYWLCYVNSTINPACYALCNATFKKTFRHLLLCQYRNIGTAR
As to the kind of experiment: mAChR M4 cell-based functional assay: calcium mobilization (Fluo-4, FDSS), potentiation of EC20 acetylcholine response in hM4-Gqi5 CHO-K1 cells. The settings on record: human M4; for Emax at 30 µM: CHO-K1, % ACh maximum at 30 μM; for EC50: potentiation of EC20 acetylcholine response, calcium mobilization. How it is done:
Human and rat M4 cDNAs, along with the chimeric G protein Gqi5, were transfected into Chinese hamster ovary (CHO-K1) cells purchased from the American Type Culture Collection using Lipofectamine2000. hM4-Gqi5 cells were grown in Ham's F-12 medium containing 10% heat-inactivated fetal bovine serum (FBS), 20 mM HEPES, 50 μg/mL G418 sulfate, and 500 μg/mL Hygromycin B. rM4-Gqi5 cells were grown in DMEM containing 10% heat-inactivated FBS, 20 mM HEPES, 400 μg/mL G418 sulfate, and 500 μg/mL Hygromycin B.
For high throughput measurement of agonist-evoked increases in intracellular calcium, CHO-K1 cells stably expressing muscarinic receptors were plated in growth medium lacking G418 and hygromycin at 15,000 cells/20 μL/well in Greiner 384-well black-walled, tissue culture (TC)-treated, clear-bottom plates (VWR). Cells were incubated overnight at 37° C. and 5% CO2. The next day, cells were washed using an ELX 405 (BioTek) with assay buffer; the final volume was then aspirated to 20 μL. Next, 20 μL of a […] of Fluo-4/acetoxymethyl ester (Invitrogen, Carlsbad, CA), prepared as a 2.3 mM stock in DMSO and mixed in a 1:1 ratio with 10% (w/v) Pluronic F-127 and diluted in assay buffer, was added to the wells and the cell plates were incubated for 50 min at 37° C. and 5% CO2. Dye was removed by washing with the ELX 405 and the final volume was aspirated to 20 μL. Compound master plates were formatted in an 11 point concentration-response curve (CRC) format (1:3 dilutions) in 100% DMSO with a starting concentration of 10 mM using a BRAVO liquid handler (Agilent). Test compound CRCs were then transferred to daughter plates (240 nL) using the Echo acoustic plate reformatter (Labcyte, Sunnyvale, CA) and then diluted into assay buffer (40 μL) to a 2× stock using a Thermo Fisher Combi (Thermo Fisher Scientific, Waltham, MA).
Calcium flux was measured using the Functional Drug Screening System (FDSS) 6000 or 7000 (Hamamatsu Corporation, Tokyo, Japan) as an increase in the fluorescent static ratio. Compounds were applied to cells (20 μL, 2X) using the automated system of the FDSS at 2-4 seconds into the protocol and the data were collected at 1 Hz. At 144 seconds, 10 μL of an EC20 concentration of the muscarinic receptor agonist acetylcholine was added (5×), followed by the addition of 12 μL of an […] concentration of acetylcholine at the 230 second time point (5×). Agonist activity was analyzed as a concentration-dependent increase in calcium mobilization upon compound addition. Positive allosteric modulator activity was analyzed as a concentration-dependent increase in the EC20 acetylcholine response. Antagonist activity was analyzed as a concentration-dependent decrease in the EC20 acetylcholine response. Concentration-response curves were generated using a four-parameter logistical equation in XLFit curve fitting software (IDBS, Bridgewater, NJ) for Excel (Microsoft, Redmond, WA) or Prism (GraphPad Software, Inc., San Diego, CA).
Compounds were synthesized as described above. Activity (EC50 and Emax) was determined in the mAChR M4 cell-based functional assay as described above and the data are shown in Table 4. The compound number corresponds to the compound numbers used in Tables 1-3.

The Emax is the greatest response seen or fitted, relative to the assay's reference. What is called EC50 is the concentration giving half of the maximal effect. With `Cc1cnccc1Nc1cnc2c(c1)CN(c1nn3c(=O)ccnc3cc1C)CC2` [Compound 2-102, 8-methyl-7-(3-((3-methylpyridin-4-yl)amino)-7,8-dihydro-1,6-naphthyridin-6(5H)-yl)-4H-pyrimido[1,2-b]pyridazin-4-one], the maximal response (Emax) at 30 µM came out at 84% and the half-maximal effective concentration (EC50) was 585 nM.
In the case of `Cc1cc(=O)n2nc(N3CCc4ncc(-c5cnn(CC(F)(F)F)c5)cc4C3)c(C)cc2n1` [Compound 1-291, 2,8-dimethyl-7-(3-(1-(2,2,2-trifluoroethyl)-1H-pyrazol-4-yl)-7,8-dihydro-1,6-naphthyridin-6(5H)-yl)-4H-pyrimido[1,2-b]pyridazin-4-one], the Emax at 30 µM was 82% and the EC50 was determined as 356 nM.
As to `Cc1c(N2CCc3ncc(-c4cnn(C5CC5)c4)cc3C2)nn2c(=O)ccnc2c1C` [Compound 1-152, 7-(3-(1-cyclopropyl-1H-pyrazol-4-yl)-7,8-dihydro-1,6-naphthyridin-6(5H)-yl)-8,9-dimethyl-4H-pyrimido[1,2-b]pyridazin-4-one], the Emax at 30 µM is 80% and the concentration giving a half-maximal response (EC50) came to 133 nM.
The corresponding values for `COc1ccc(-c2cnc3c(c2)CN(c2nn4c(=O)ccnc4cc2C)CC3)cn1` [Compound 1-60, 7-(3-(6-methoxypyridin-3-yl)-7,8-dihydro-1,6-naphthyridin-6(5H)-yl)-8-methyl-4H-pyrimido[1,2-b]pyridazin-4-one] are 104% and 140 nM.
Take `Cc1cc(=O)n2nc(N3CCc4ncc(-c5cccc(F)c5)cc4C3)c(C)c(C)c2n1` [Compound 1-203, 7-(3-(3-fluorophenyl)-7,8-dihydro-1,6-naphthyridin-6(5H)-yl)-2,8,9-trimethyl-4H-pyrimido[1,2-b]pyridazin-4-one]: the maximal effect (Emax) at 30 µM came out at 80% and the EC50 stood at 417 nM.
For `Cc1cc2nccc(=O)n2nc1N1CCc2ncc(N3CCOC(c4ccccn4)C3)cc2C1` (centres unmarked) [Compound 2-76, 8-methyl-7-(3-(2-(pyridin-2-yl)morpholino)-7,8-dihydro-1,6-naphthyridin-6(5H)-yl)-4H-pyrimido[1,2-b]pyridazin-4-one], the Emax at 30 µM was 76% and the concentration for a half-maximal effect (EC50) turned out to be 5340 nM.
In the case of `Cc1cc2nc(C(F)(F)F)cc(=O)n2nc1N1CCc2ncc(Nc3ccncc3F)cc2C1` [Compound 2-160, 7-(3-((3-fluoropyridin-4-yl)amino)-7,8-dihydro-1,6-naphthyridin-6(5H)-yl)-8-methyl-2-(trifluoromethyl)-4H-pyrimido[1,2-b]pyridazin-4-one], the Emax at 30 µM worked out at 92% and the EC50 came to 8 nM.
As to `Cc1c(N2CCc3ncc(C(F)(F)F)cc3C2)nn2c(=O)cc(C(C)C)nc2c1C` [Compound 1-107, 2-isopropyl-8,9-dimethyl-7-(3-(trifluoromethyl)-7,8-dihydro-1,6-naphthyridin-6(5H)-yl)-4H-pyrimido[1,2-b]pyridazin-4-one], the maximum response (Emax) at 30 µM was found to be 102% and the half-maximal effective concentration (EC50) came to 178 nM.
On to `Cc1cc2nccc(=O)n2nc1N1CCc2ncc(Nc3ccncc3Cl)cc2C1` [Compound 2-113, 7-(3-((3-chloropyridin-4-yl)amino)-7,8-dihydro-1,6-naphthyridin-6(5H)-yl)-8-methyl-4H-pyrimido[1,2-b]pyridazin-4-one], for which the Emax at 30 µM is 97% and the concentration for a half-maximal effect (EC50) amounted to 48 nM.
The corresponding values for `Cc1c(N2CCc3ncc(-c4cnccc4C(F)(F)F)cc3C2)nn2c(=O)ccnc2c1C` [Compound 1-142, 8,9-dimethyl-7-(3-(4-(trifluoromethyl)pyridin-3-yl)-7,8-dihydro-naphthyridin-6(5H)-yl)-4H-pyrimido[1,2-b]pyridazin-4-one] are 53% and 371 nM.
`Cc1cc2nccc(=O)n2nc1N1CCc2ncc(-c3cnccc3C#N)cc2C1` [Compound 1-319, 3-(6-(8-methyl-4-oxo-4H-pyrimido[1,2-b]pyridazin-7-yl)-5,6,7,8-tetrahydro-1,6-naphthyridin-3-yl)isonicotinonitrile]: the maximal response (Emax) at 30 µM was found to be 34% and the EC50 was 2640 nM.
The corresponding values for `COCc1c(N2CCc3ncc(-c4ccc(C)nc4)cc3C2)nn2c(=O)ccnc2c1C` [Compound 1-271, 8-(methoxymethyl)-9-methyl-7-(3-(6-methylpyridin-3-yl)-7,8-dihydro-1,6-naphthyridin-6(5H)-yl)-4H-pyrimido[1,2-b] pyridazin-4-one] are 87% and 70 nM.
On to `Cc1c(N2CCc3ncc(N4CC(C)(C)CC4=O)cc3C2)nn2c(=O)ccnc2c1C` [Compound 2-145, 7-(3-(4,4-dimethyl-2-oxopyrrolidin-1-yl)-7,8-dihydro-1,6-naphthyridin-6(5H)-yl)-8,9-dimethyl-4H-pyrimido[1,2-b]pyridazin-4-one], for which the maximal response (Emax) at 30 µM worked out at 68% and the EC50 was 1750 nM.
As to `COc1ccccc1-c1cnc2c(c1)CN(c1nn3c(=O)cc(C)nc3cc1C)CC2` [Compound 1-233, 7-(3-(2-methoxyphenyl)-7,8-dihydro-1,6-naphthyridin-6(5H)-yl)-2,8-dimethyl-4H-pyrimido[1,2-b]pyridazin-4-one], the maximal effect (Emax) at 30 µM amounted to 65% and the half-maximal effective concentration (EC50) was 735 nM.
As for `Cc1cc(=O)n2nc(N3CCc4ncc(-c5cnn(C6COC6)c5)cc4C3)c(C)cc2n1` [Compound 1-287, 2,8-dimethyl-7-(3-(1-(oxetan-3-yl)-1H-pyrazol-4-yl)-7,8-dihydro-1,6-naphthyridin-6(5H)-yl)-4H-pyrimido[1,2-b]pyridazin-4-one], the Emax at 30 µM turned out to be 85% and the EC50 amounted to 1210 nM.
The corresponding values for `Cc1ccc(-c2cnc3c(c2)CN(c2nn4c(=O)cc(C(F)F)nc4c(C)c2C)CC3)cn1` [Compound 1-85, 2-(difluoromethyl)-8,9-dimethyl-7-(3-(6-methylpyridin-3-yl)-7,8-dihydro-1,6-naphthyridin-6(5H)-yl)-4H-pyrimido[1,2-b]pyridazin-4-one] are 103% and 127 nM.
`Cc1cc(=O)n2nc(N3CCc4ncc(-c5ccco5)cc4C3)c(C)cc2n1` [Compound 1-301, 7-(3-(furan-2-yl)-7,8-dihydro-1,6-naphthyridin-6(5H)-yl)-2,8-dimethyl-4H-pyrimido[1,2-b]pyridazin-4-one]: the Emax at 30 µM is 91% and the EC50 was determined as 111 nM.
The corresponding values for `COc1ccc(-c2cnc3c(c2)CN(c2nn4c(=O)cc(C)nc4c(C)c2C)CC3)cn1` [Compound 1-186, 7-(3-(6-methoxypyridin-3-yl)-7,8-dihydro-1,6-naphthyridin-6(5H)-yl)-2,8,9-trimethyl-4H-pyrimido[1,2-b]pyridazin-4-one] are 84% and 460 nM.
On to `Cc1cccnc1-c1cnc2c(c1)CN(c1nn3c(=O)ccnc3cc1C)CC2` [Compound 1-348, 8-methyl-7-(3-(3-methylpyridin-2-yl)-7,8-dihydro-1,6-naphthyridin-6(5H)-yl)-4H-pyrimido[1,2-b]pyridazin-4-one], for which the Emax at 30 µM was 68% and the EC50 was found to be 2600 nM.
